The values that follow come from US20030153611A1, “1,3-Diarylprop-2-en-1-ones, compositions containing them and use thereof” (AVENTIS PHARMA S.A., priority 2001, published 2003).

The subject of the experiment is HDMEC cells. The experiment in a line: Detachment effect on HDMEC endothelial cells. It is filed as cell-based, Human. The conditions noted are these: 1 μM, treatment for two hours.
Description: A test to determine the detachment of endothelial cells was established in order to select the products on the basis of their “in vitro” activity. This test for determining the endothelial cell detachment is characterized in that the endothelial cells, inoculated in plates which are coated at the bottom with a binder, e.g., chosen from gelatin, fibronectin or vitronectin, after culturing, are supplemented with a medium containing the test compound, and the cells are then labeled with a fluorescent substance, the cells which become detached are removed by washing and the fluorescence of the remaining cells is counted in a fluorimeter.
This test consists in measuring the detachment of endothelial cells cultured on substrates based on a binder, e.g., chosen from fibronectin, vitronectin and gelatin. One day after inoculating the cells in plates containing 96 wells, for example, the culture medium is replaced with a medium containing the test compound in the absence of serum. The same preparation is prepared six times at three different concentrations ([…]) and the control without addition of antivascular product is prepared six times. After treatment for two hours with the test substance, the cells are labeled with calcein-AM (1.6 μg/ml) in a culture medium supplemented with 0.1% BSA. The cells which become detached are removed by washing with the culture medium containing 0.1% bovine serum albumin; 100 μl of medium are added to each well. The fluorescence of the remaining cells is counted in a fluorimeter. The data obtained are expressed relative to the control (untreated cells).
(§1) The assessment of the detachment of the endothelial cells in vitro is determined in the following way. HDMEC cells (Human Dermal Microvascular Endothelial Cells, Promocell, c-122102) are cultured in an ECGM-MV medium containing 5% fetal calf serum, growth factors (EGF 10 ng/ml, hydrocortisone 1 μg/ml, 0.4% growth supplement with heparin) and antibiotics (amphotericin 50 ng/ml, gentamicin 50 μg/ml). For the detachment test, the HDMECs are inoculated at a rate of 5 000 cells in clear-bottomed 96-well plates (Costar) precoated with fibronectin (10 μg/ml) or vitronectin (1 μg/ml) or gelatin. Twenty-four hours later, the culture medium is replaced with 0.1% BSA ECGM-MV medium containing the indicated products. The test concentrations are 0.1-0.3 and 1 μM for each product. After treatment for two hours, the cells are labeled for 1 hour with calcein (1.6 μg/ml, Molecular Probes) in 0.1% BSA ECGM-MV medium. The detached cells are then removed by washing with 0.1% BSA ECGM-MV medium; 100 μl of medium are added to each well. The fluorescence of the cells which remain attached to the substratum of the well is counted using a fluorimeter, Spectrafluor Plus (Tecan, excitation at 485 nm, and emission at 535 nm). The data are the average of six different samples and are expressed as a percentage of the control (untreated cells).
A cell detachment effect of greater than or equal to 15% is considered as significant.
as §1, with “(amphotericine” for “(amphotericin”, “The detached cells are then removed by washing with 0.1% BSA ECGM-MV medium; 100 μl of medium are added to each well. The fluorescence of the cells which remain attached to the substratum of the well is counted using a fluorimeter, Spectrafluor Plus (Tecan, excitation at 485 nm, and emission at 535 nm). The data are the average of six different samples and are expressed as a percentage of the control (untreated cells).” left out

Molecules are shown by their SMILES. Structures can show the parent of a compound that is named as a salt.

For `COc1ccc(/C=C(\C)C(=O)c2cc(OC)c(OC)c(OC)c2)cc1NC(=O)[C@@H](N)CO` [Example 13, (S)-2-Amino-3-hydroxypropanoic acid {2-methoxy-5-[2-methyl-3-oxo-3-(3,4,5-trimethoxyphenyl)propenyl]phenyl}amide hydrochloride], the “Percentage of detachment of HDMEC cells induced with the compound at a concentration of 1 μM” value came to 31%.
With `COc1cc(C(=O)/C(C)=C/c2ccc3c(ccn3C)c2)cc(OC)c1OC` [Example 5, E-2-Methyl-3-(1-methyl-1-H-indol-5-yl)-1-(3,4,5-trimethoxyphenyl)propenone] the figure was 32%.
